Experimental data published in PMC9950556, “Acetylcholinesterase inhibitory activity of sesquiterpenoids isolated from Laggera pterodonta” (Frontiers in Plant Science, 2023).
“And” between values parts separate entries of the source, which are not always exact repeats. Identical values can stand only once. “Also recorded” adds a separate entry of the source.

How the values were obtained:
[1] = system: C. elegans AChE; test: Determination of IC50 of compounds to AChE (Ellman method, nematode homogenate); assay type: biochemical; settings: 2-h incubation at 37°C, mean ± SD, triplicates, read-out: IC50 of AChE inhibition
Description: Third-instar juvenile stage samples of C. elegans were thoroughly ground using a glass homogenizer. The homogenate was then dissolved in PBS (pH 7.0, which contained 0.1% Triton X-100) using a suitable volume, followed by a 30-min centrifugation at 6000 r/min under 4°C to harvest supernatants to analyze the enzymes ([Ellman et al., 1961]; [Zhao et al., 2018]) [Nematode (3rd instar): 4000 individuals/mL].
After dissolving the eight compounds and chlorpyrifos in acetone, multiple dilutions were made to obtain test concentrations at 5 levels. Thereafter, the test solution of every level (4 µL) was blended with the enzyme solution (96 µL), followed by 2-h incubation at 37°C in a 96-well plate. The final concentrations of compounds were 29.25, 58.50, 117.00, 234.00, and 468.00 µg/mL, respectively. Thereafter, 1.5 mM acetylthiocholine iodide (ATCHI) (50 µL) was added for a further 0.5-h incubation at 37°C. The reaction was finally terminated by adding 0.3 mM 5,5′- dithiobis (2 - nitrobenzoic acid) (DTNB) (50 µL). Afterward, the residual activity of acetylcholinesterase was measured with a microplate reader at 405 nm. Corresponding treatments were then applied to different groups as given below:
The inhibition rate (%) was calculated follows:
I%=[1−(Treatment group−Compound control group)/(Substrate control group−PBS control group)]×100%

[2] = system: C. elegans; test: Toxic effects of compounds on C. elegans (lethality); assay type: in vivo; settings: Caenorhabditis elegans, 48 h, mean ± SD, read-out: Lethality rate (%); for mortality at 500 µg/mL: compound 0.5 mg/mL
Description: In the toxicity analysis, 95 µL of the nematode solution (containing approximately 80 C. elegans) along with 5 µL of each compound was added to a 96-well plate. The final concentration of each compound was 0.5 mg/mL, and chlorpyrifos (20 µg/mL) was used as the positive control. The samples were mixed sufficiently, followed by 48-h incubation of plates under RT, and subsequently, the dead nematodes were counted to determine the lethality rate ([Roh and Choi, 2008]).

[3] = target: nematode AChE; test: Kinetic study on the inhibitory effect of AChE by compound (Lineweaver-Burk and Dixon plots); assay type: biochemical, C. elegans
Description: This study prepared the enzyme solution at multiple gradients (0.125, 0.25, 0.5, and 1.0 U/mL). After adding compound 5 (29.25, 58.50, 117.00, 234.00, and 468.00 µg/mL), the mixed sample was then subjected to a 1-h incubation on a 96-well plate at 37°C (the buffer was used as a substitute for the control group). Later, 1.5 mM ATCHI (50 µL) was added and incubated for a 30-min period, followed by an addition of the 0.3 mM DTNB (50 µL). After 30 s, a microplate reader was utilized to record the OD value at 405 nm (five times at 1-min intervals). The change in the OD value every minute was used to calculate the reaction rate (ΔA/min). Later, the reaction rate curve, as a function of enzyme concentration, was plotted to compare reaction rates (v) among diverse test compound levels. Associations between diverse enzyme levels were utilized to evaluate the inhibitory effect of the compound on nematode AChE ([Xiong et al., 2016]).

Compound | IC50 [1] | mortality at 500 µg/mL [2] [%] | mortality at 20 µg/mL ([2]; positive control 20 µg/mL) [%] | Ki (dissociation constant of the enzyme-inhibitor complex) ([3]; Dixon plot, substrate 3 and 6 mM) [µg/mL] | type of AChE inhibition ([3]; enzyme-concentration plot, Lineweaver-Burk and Dixon plots)
C=C(C(=O)O)[C@@H]1CC[C@@]2(C)CCC(=O)C(C)=C2C1 [Compound 8, 3-oxo-di-nor-eudesma-4-en-11-oic acid] | < 710 µM and 697 µM | 34.6 ± 1.44 | – | – | –
C=C(C(=O)O)C1CCC2=CC(O)CC(C)C2(C)C1 (centres unmarked) [Compound 1, laggeranine A] | < 530 µM and 518 µM | 38.8 ± 2.5 | – | – | –
C=C(C(=O)OCC)[C@@H]1CC[C@@]2(C)CCCC(=C)[C@]2(O)C1 [Compound 2, laggeranine B] | < 710 µM and 701 µM | 31.7 ± 0.72 | – | – | –
C=C(C(=O)O)[C@@H]1CC[C@@]2(C)CCC[C@H](C)[C@]2(O)C1 [Compound 6, 5α-hydroxy-4α,15-dihydrocostic acid] | 470 ± 15.6 µM | 48.8 ± 2.5 | – | – | –
C=C(C(=O)O)[C@@H]1CC[C@@]2(C)CCCC(=C)[C@]2(O)C1 [Compound 7, 5α-hydroxycostic acid] | 485 ± 11.5 µM | 50.8 ± 1.91 | – | – | –
C=C(C(=O)O)[C@@H]1CC[C@@]2(C)CCCC(C)=C2C1 [Compound 4, isocostic acid] | < 530 µM and 528 µM | 30.8 ± 1.91 | – | – | –
CCOP(=S)(OCC)Oc1nc(Cl)c(Cl)cc1Cl [Chlorpyrifos, chlorpyrifos, reference compound] | 7.33 ± 0.58 µM | – | 81.7 ± 2.6 | – | –
C=C1CCC[C@]2(C)CC[C@@H](C(=C)C(=O)O)CC12 (some centres unmarked) [Compound 5, costic acid] | 437 ± 8.33 µM | 72.9 ± 3.15 | – | 24.668 | reversible inhibitor; also recorded: mixed-type competitive
C=C(C(=O)O)[C@H]1C=C2[C@@H](C)CCC[C@]2(C)CC1 [Compound 3, eudesma-5,12-dien-13-oic acid] | 464 ± 10 µM | 60.8 ± 2.6 | – | – | –
